# Assays:
# [1] = molecular target: T1, human NK2-receptor (Homo sapiens, UniProt P21452); assay: Functional cellular test, Ca2+ measurements using FLIPR for NK2 activity;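 also: CHO cells stably expressing the human receptor, loaded with a calcium dye, antagonist inhibition of ligand-evoked intracellular calcium rise read as peak fluorescence change on FLIPR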
# T1 sequence (P21452 1-398): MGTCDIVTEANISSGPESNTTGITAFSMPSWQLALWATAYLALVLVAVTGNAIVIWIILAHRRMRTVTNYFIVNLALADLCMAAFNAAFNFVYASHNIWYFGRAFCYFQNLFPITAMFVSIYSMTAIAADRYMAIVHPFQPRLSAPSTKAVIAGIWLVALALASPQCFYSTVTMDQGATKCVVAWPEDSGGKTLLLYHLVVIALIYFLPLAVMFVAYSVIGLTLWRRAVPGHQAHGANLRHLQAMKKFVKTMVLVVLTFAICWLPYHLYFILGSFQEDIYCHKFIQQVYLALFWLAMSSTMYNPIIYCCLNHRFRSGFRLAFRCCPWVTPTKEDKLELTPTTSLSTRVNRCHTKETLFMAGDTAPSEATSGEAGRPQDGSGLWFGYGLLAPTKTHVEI
# [2] = molecular target: T2, human NK3 receptor (Homo sapiens, UniProt P29371); assay: Functional cellular test, Ca2+ measurements using aequorin for NK3 activity; type: cell-based; set-up: expressed in transfected cells; host or cells: cell line co-expressing mitochondrially targeted apoaequorin (CHO according to b76/b77); settings: for Kb: read-out: pA2 data for NK3 (converted)
# T2 sequence (P29371 1-465): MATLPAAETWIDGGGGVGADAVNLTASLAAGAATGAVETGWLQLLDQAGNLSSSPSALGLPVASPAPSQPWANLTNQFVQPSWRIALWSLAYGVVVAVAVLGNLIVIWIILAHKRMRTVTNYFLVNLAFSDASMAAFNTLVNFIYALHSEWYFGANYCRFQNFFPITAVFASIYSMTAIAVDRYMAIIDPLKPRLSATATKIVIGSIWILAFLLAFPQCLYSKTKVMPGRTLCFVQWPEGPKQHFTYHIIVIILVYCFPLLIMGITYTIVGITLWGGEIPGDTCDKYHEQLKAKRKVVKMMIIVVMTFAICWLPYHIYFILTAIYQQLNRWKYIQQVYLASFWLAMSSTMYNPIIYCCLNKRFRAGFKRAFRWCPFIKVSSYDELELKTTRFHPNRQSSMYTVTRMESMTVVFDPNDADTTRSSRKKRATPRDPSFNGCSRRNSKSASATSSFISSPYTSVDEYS
# [3] = molecular target: T1, human NK2-receptor; assay: Binding potency of the test substances to NK2-receptors in vitro ([3H]-SR 48968 displacement); set-up: expressed in transfected cells; host or cells: CHO cells (membrane preparation); settings: human NK2-receptor in CHO cell membranes, [3H]-SR 48968 (saredutant), average of at least three measurements; for Ki: read-out: pKi, binding potency to NK2-receptors (converted)
# Description: 2. Determination of the Binding Potency of the Test Substances to NK2-Receptors in Vitro
# The affinity of test compounds for NK2-receptors can be determined by measuring the ability of the test compound to displace a radiolabeled ligand from its specific binding site.
# (§1) The radiolabel used in this assay is [^3H]-SR 48968 (saredutant). Receptors were obtained from membrane preparations of CHO-cells (Chinese Hamster Ovary cells), in which the human NK2-receptor was stably expressed. Membranes were incubated with [^3H]-saredutant in the absence or presence of test compounds at different concentrations, diluted in a buffer system. Separation of bound radioactivity from free radioactivity was done by filtration through glass fiber filters (Packard GF/B) with several washings with ice-cold buffer solution. Bound radioactivity was measured with a liquid scintillation counter (total binding). Unspecific binding was determined by incubation with an excess (0.1 μmol/l) of unlabeled saredutant. Specific binding is obtained by subtracting the unspecific binding from the total binding.
# (§2) Radioactivity of the specific binding was plotted against the concentration of the test compound and IC50 values, i.e. the concentration of test compound by which 50% of the radioligand is displaced, were calculated. The inhibition constant (Ki) was calculated according to the Cheng-Prusoff equation, and listed as its negative logarithmic value (pKi). The pKi value describes the potency of a test compound to bind to a receptor.
# (§3) The average result of all measurements is listed above.
# [4] = molecular target: T2, human NK3 receptor; assay: Binding potency of the test substances to NK3-receptors in vitro ([3H]-SR 142801 displacement); set-up: expressed in transfected cells; host or cells: CHO cells (membrane preparation); settings: human NK3-receptor in CHO cell membranes, [3H]-SR 142801 (osanetant), average of at least three measurements; for Ki: read-out: pKi, binding potency to NK3-receptors (converted)
# Description: 3. Determination of the Binding Potency of the Test Substances to NK3-Receptors in Vitro
# The affinity of test compounds for NK3-receptors can be determined by measuring the ability of the test compound to displace a radiolabeled ligand from its specific binding site.
# as §1, with “142801 (osanetant).” for “48968 (saredutant).”, “NK3-receptor” for “NK2-receptor”, “[^3H]-osanetant” for “[^3H]-saredutant”, “(1” for “(0.1”, “osanetant.” for “saredutant.”
# as §2, with “(pKi)” for “(pKi).”
# as §3
Compound,Kb [1] [µM],Ki [3] [µM],Ki [4] [µM],other results
CN(C)C(=O)C1(N2CCCCC2)CCN(CCC(CN(C)C(=O)c2ccc3occc3c2)c2ccc(Cl)c(Cl)c2)CC1 (centres unmarked) [compound 68],0.01,0.002,0.01,
CN(C)C(=O)C1(N2CCCCC2)CCN(CC[C@H](CN(C)C(=O)c2ccccc2O)c2ccc(Cl)c(Cl)c2)CC1 [compound 12],,,,"pA2 data for NK2 ([1]; CHO cells, human NK2, FLIPR Ca2+, agonist NKA 10^-7 M): 8.3; pA2 data for NK3 ([2]; cell line with human NK3 receptor and apoaequorin, agonist senktide 5x10-8 M): 7.9; pKi, binding potency to NK2-receptors [3]: 8.7; pKi, binding potency to NK3-receptors [4]: 7.9"
CN(C)C(=O)C1(N2CCCCC2)CCN(CCC(CN(C)C(=O)c2ccoc2)c2ccc(Cl)c(Cl)c2)CC1 (centres unmarked) [compound 36],0.000501,0.00158,0.00501,Kb [2]: 0.0631 µM
CN(C)C(=O)C1(N2CCCCC2)CCN(CCC(CN(C)C(=O)c2ccc(OC(F)(F)F)cc2)c2ccc(Cl)c(Cl)c2)CC1 (centres unmarked) [compound 55],0.002,0.00631,0.00398,Kb [2]: 0.00794 µM
Cc1c(C(=O)N(C)CC(CCN2CCC(C(=O)N(C)C)(N3CCCCC3)CC2)c2ccc(Cl)c(Cl)c2)nnn1Cc1ccccc1 (centres unmarked) [compound 67],0.0251,0.00631,0.00501,Kb [2]: 0.0158 µM
CN(C)C(=O)C1(N2CCCCC2)CCN(CCC(CN(C)C(=O)C2CCOCC2)c2ccc(Cl)c(Cl)c2)CC1 (centres unmarked) [compound 53],,,0.00316,Kb [2]: 0.0501 µM
"CN(C)C(=O)C1(N2CCCCC2)CCN(CC[C@H](CN(C)C(=O)c2ccccc2)c2ccccc2)CC1 [compound 94, 1′-[(3S)-4-[benzoyl(methyl)amino]-3-phenylbutyl]-N,N-dimethyl-1, 4′-bipiperidine-4′-carboxamide]",0.00158,0.00316,,
CN(C)C(=O)C1(N2CCCCC2)CCN(CCC(CN(C)C(=O)c2ccc(Cl)c(Cl)c2)c2ccc(Cl)c(Cl)c2)CC1 (centres unmarked) [compound 81],,0.0126,0.0794,
CN(C)C(=O)C1(N2CCCCC2)CCN(CCC(CN(C)C(=O)c2ccccc2C(F)(F)F)c2ccc(Cl)c(Cl)c2)CC1 (centres unmarked) [compound 77],,0.00316,0.0794,
CN(C)C(=O)C1(N2CCCCC2)CCN(CCC(CN(C)C(=O)c2ccc3cc[nH]c3c2)c2ccc(Cl)c(Cl)c2)CC1 (centres unmarked) [compound 41],,0.00316,0.0158,
CN(C)C(=O)C1(N2CCCCC2)CCN(CCC(CN(C)C(=O)CCc2ccc(O)cc2)c2ccc(Cl)c(Cl)c2)CC1 (centres unmarked) [compound 29],,0.00251,0.0501,
CN(C)C(=O)C1(N2CCCCC2)CCN(CCC(CN(C)C(=O)c2ccccc2F)c2ccc(Cl)c(Cl)c2)CC1 (centres unmarked) [compound 72],,0.00316,0.0398,
CN(C)C(=O)C1(N2CCCCC2)CCN(CCC(CN(C)C(=O)c2c(F)cccc2F)c2ccc(Cl)c(Cl)c2)CC1 (centres unmarked) [compound 74],,0.00398,0.0251,
CN(C)C(=O)C1(N2CCCCC2)CCN(CCC(CN(C)C(=O)Cc2ccc(-c3ccccc3)cc2)c2ccc(Cl)c(Cl)c2)CC1 (centres unmarked) [compound 33],,0.0794,0.0316,
CN(C)C(=O)C1(N2CCCCC2)CCN(CCC(CN(C)C(=O)c2c(-c3ccccc3)oc3ccccc3c2=O)c2ccc(Cl)c(Cl)c2)CC1 (centres unmarked) [compound 21],,0.0126,0.0631,
CN(C)C(=O)C1(N2CCCCC2)CCN(CCC(CN(C)C(=O)c2ccc(C#N)cc2)c2ccc(Cl)c(Cl)c2)CC1 (centres unmarked) [compound 91],,0.00794,0.0158,
CN(C)C(=O)C1(N2CCCCC2)CCN(CCC(CN(C)C(=O)c2ccc(Cl)cc2Cl)c2ccc(Cl)c(Cl)c2)CC1 (centres unmarked) [compound 75],,0.00501,0.0398,

# Continued, in another order:
Kb [1] [µM],Ki [3] [µM],Ki [4] [µM],Compound,other results
0.00316,0.001,0.00501,"CC(=O)Oc1ccc(C(=O)N(C)C[C@@H](CCN2CCC(C(=O)N(C)C)(N3CCCCC3)CC2)c2ccc(Cl)c(Cl)c2)cc1 [compound 5, 4-({[(2S)-2-(3,4-dichlorophenyl)-4-{4′-[(dimethylamino)-carbonyl]-1,4′-bipiperidin-1′-yl}butyl](methyl)amino}carbonyl)phenyl acetate]",Kb [2]: 0.00316 µM
0.0158,0.0316,,CN(C)C(=O)C1(N2CCCCC2)CCN(CCC(CN(C)C(=O)c2cc[n+]([O-])cc2)c2ccc(Cl)c(Cl)c2)CC1 (centres unmarked) [compound 17],Kb [2]: 0.126 µM
0.00158,0.00158,0.02,CN(C)C(=O)C1(N2CCCCC2)CCN(CCC(CN(C)C(=O)c2cccs2)c2ccc(Cl)c(Cl)c2)CC1 (centres unmarked) [compound 37],Kb [2]: 0.0316 µM
,0.0126,0.0794,CN(C)C(=O)C1(N2CCCCC2)CCN(CCC(CN(C)C(=O)c2cc[nH]c2)c2ccc(Cl)c(Cl)c2)CC1 (centres unmarked) [compound 64],
,0.00501,0.0398,CN(C)C(=O)C1(N2CCCCC2)CCN(CCC(CN(C)C(=O)c2ccccc2Br)c2ccc(Cl)c(Cl)c2)CC1 (centres unmarked) [compound 71],
,0.00316,0.02,CN(C)C(=O)C1(N2CCCCC2)CCN(CCC(CN(C)C(=O)c2ccc(Cl)c(S(N)(=O)=O)c2)c2ccc(Cl)c(Cl)c2)CC1 (centres unmarked) [compound 47],
,0.0126,0.0501,COc1ccc(C(=O)N(C)CC(CCN2CCC(C(=O)N(C)C)(N3CCCCC3)CC2)c2ccc(Cl)c(Cl)c2)cc1 (centres unmarked) [compound 85],
,0.01,0.00794,CN(C)C(=O)C1(N2CCCCC2)CCN(CCC(CN(C)C(=O)Cc2ccccn2)c2ccc(Cl)c(Cl)c2)CC1 (centres unmarked) [compound 49],
,0.00501,0.0501,CN(C)C(=O)C1(N2CCCCC2)CCN(CCC(CN(C)C(=O)c2ccc(OC(F)(F)F)cc2)c2ccc(Cl)c(Cl)c2)CC1 (centres unmarked) [compound 26],
0.00398,0.0158,0.0126,CC(=O)N1CCC(C(=O)N(C)CC(CCN2CCC(C(=O)N(C)C)(N3CCCCC3)CC2)c2ccc(Cl)c(Cl)c2)CC1 (centres unmarked) [compound 52],
,0.0158,0.0398,CN(C)C(=O)C1(N2CCCCC2)CCN(CCC(CN(C)C(=O)c2ccc3ccccc3c2)c2ccc(Cl)c(Cl)c2)CC1 (centres unmarked) [compound 32],

# — patent US20070219214A1, “Dual NK2/NK3-antagonists, pharmaceutical compositions comprising them, and processes for their preparation” (Solvay pharmaceuticals GmbH, priority 2006, published 2007)
